Test results published in US6328989A, “Use of bicozamycin for the manufacture of a medicament for treating infections with enterohemorrhagic e. coli” (Fujisawa Pharmaceutical Co., Ltd., priority 1997, dated 2001).
≈ marks a conversion by molar mass, not a printed value. Where “and” joins values, the source holds several entries; their conditions need not be identical. Identical values can stand only once. Like-named read-outs stand apart in the source and are kept apart here.

Assays:
[1] = test system: VT2; format: cell-based, E. coli O-157:H7; settings: 3h; for VT2 released: control 0h <2, control 3h 8; for VT2 intracellular: control 0h <2, control 3h 16; for VT2 released, ratio to control at 0h: control 3h ratio 8; for VT2 intracellular, ratio to control at 0h: control 3h ratio 16
[2] = test system: VT1; format: cell-based, E. coli O-157:H7; settings: 3h; for VT1 released: control 0h <2, control 3h 2; for VT1 released, ratio to control at 0h: control 3h ratio 2; for VT1 intracellular, ratio to control at 0h: control 3h ratio 32
[3] = test system: Verotoxins (VT1 and VT2); format: cell-based, E. coli O-157:H7; settings: concentration greater than MIC; compared with untreated E. coli
[4] = test system: E. coli O-157:H7; test: Minimum inhibitory concentration (MIC) against E. coli O-157:H7 strains by agar dilution method; format: cell-based; settings: for MIC50 / MIC90: Escherichia coli, 18 h, 20 strains
[5] = test system: VT2; test: Amount of VT2 in cecum of mice infected with E. coli O-157 (VTEC-RPLA); format: in vivo, E. coli FP1962 in DBA/2 mice; settings: day 6
[6] = test system: verotoxins; parameters: species or system E. coli FP1962 in DBA/2 mice; settings: mouse, in vivo, po
[7] = test system: VT1; test: Amount of VT1 in cecum of mice infected with E. coli O-157 (VTEC-RPLA); format: in vivo, E. coli FP1962 in DBA/2 mice; settings: day 6
[8] = test system: E. coli O-157; test: Viable cells in the cecum of mice infected with E. coli O-157; format: in vivo, E. coli FP1962 in DBA/2 mice; settings: for Number of cells in cecum, individual mouse / Number of cells in cecum, mean: day 6; for Number of cells in cecum, individual mouse: DBA/2 mice; for Number of cells in cecum, mean: control mean 3.4 × 10^7
[9] = test system: E. coli O-157; test: Death of mice infected with E. coli O-157; format: in vivo, E. coli FP1962 in DBA/2 mice; settings: 10 mg/kg/dose orally twice a day for 4 days
[10] = 32 mg/kg/dose orally twice a day for 4 days
[11] = 10 mg/kg/dose orally twice a day for 4 days

## CC1(C)S[C@@H]2[C@H](NC(=O)[C@H](N)c3ccc(O)cc3)C(=O)N2[C@H]1C(=O)O [AMX, Amoxicillin]
[1]; 10 μg/ml
  VT2 released: 8 maximum dilution times
  VT2 intracellular: 4 maximum dilution times
  VT2 released, ratio to control at 0h: 8
  VT2 intracellular, ratio to control at 0h: 4
[2]; 10 μg/ml, control 0h 2, control 3h 64
  VT1 intracellular: 64 maximum dilution times
[2]; 10 μg/ml
  VT1 released: ≥ 256 maximum dilution times
  VT1 released, ratio to control at 0h: ≥ 256
  VT1 intracellular, ratio to control at 0h: 32
[3]
  production and release of verotoxins: both production and release of verotoxins increased much more than those with an untreated E. coli
[4]
  MIC distribution: number of strains with MIC 1.56 μg/ml: 14 strains
  MIC distribution: number of strains with MIC 6.25 μg/ml: 2 strains
[4]; aerobic
  MIC50: 3.13 µg/mL (≈ 8.57 µM)
  MIC90: 6.25 µg/mL (≈ 17.1 µM)
[4]; anaerobic
  MIC50: 1.56 µg/mL (≈ 4.27 µM)
  MIC90: 3.13 µg/mL (≈ 8.57 µM)
[4]; aerobic, 20 strains tested
  MIC distribution: number of strains with MIC >100 μg/ml: 1 strains
[4]; anaerobic, 20 strains tested
  MIC distribution: number of strains with MIC >100 μg/ml: 1 strains

## C=C1CCO[C@]2([C@@H](O)[C@@](C)(O)CO)NC(=O)[C@@]1(O)NC2=O [BCM, Bicozamycin]
[1]; 10 μg/ml
  VT2 released: 2 maximum dilution times
  VT2 intracellular: 4 maximum dilution times
  VT2 released, ratio to control at 0h: 2
  VT2 intracellular, ratio to control at 0h: 4
[1]; 25 μg/ml
  VT2 released: < 2 maximum dilution times
  VT2 intracellular: < 2 maximum dilution times
  VT2 released, ratio to control at 0h: 1
  VT2 intracellular, ratio to control at 0h: 1
[1]; 100 μg/ml
  VT2 released: < 2 maximum dilution times
  VT2 intracellular: < 2 maximum dilution times
  VT2 released, ratio to control at 0h: 1
  VT2 intracellular, ratio to control at 0h: 1
[5]; [10]
  Amount of VT2 in cecum, individual mouse: < 2 titer and 2 titer
[6]
  production and release of verotoxins: suppressed the production and release of verotoxins
[2]; 10 μg/ml
  VT1 released: 8 maximum dilution times
  VT1 released, ratio to control at 0h: 8
  VT1 intracellular, ratio to control at 0h: 16
[2]; 25 μg/ml
  VT1 released: 8 maximum dilution times
  VT1 released, ratio to control at 0h: 8
  VT1 intracellular, ratio to control at 0h: 1
[2]; 100 μg/ml
  VT1 released: 8 maximum dilution times
  VT1 released, ratio to control at 0h: 8
  VT1 intracellular, ratio to control at 0h: 1
[3]
  production and release of verotoxins: increases in production and release of verotoxins were dramatically suppressed
[7]; [10]
  Amount of VT1 in cecum, individual mouse: < 2 titer
[4]; aerobic
  MIC50: 25 µg/mL (≈ 82.7 µM)
  MIC90: 25 µg/mL (≈ 82.7 µM)
[4]; anaerobic
  MIC50: 12.5 µg/mL (≈ 41.4 µM)
  MIC90: 25 µg/mL (≈ 82.7 µM)
[4]; aerobic, 20 strains tested
  MIC distribution: number of strains with MIC 25 μg/ml: 20 strains
[4]; anaerobic, 20 strains tested, MIC 12.5 μg/ml
  MIC distribution: number of strains with MIC 12.5 μg/ml: 15 strains
[4]; anaerobic, 20 strains tested
  MIC distribution: number of strains with MIC 25 μg/ml: 5 strains
[8]; [10]
  Number of cells in cecum, individual mouse: 4.5 × 10^3 cfu/site and 1.0 × 10^2 cfu/site and 8.5 × 10^3 cfu/site and 3.5 × 10^3 cfu/site and 1.0 × 10^5 cfu/site
  Number of cells in cecum, mean: 2.2 × 10^3 cfu/site
[8]; infected mice, 32 mg/kg/dose orally
  antimicrobial activity against VTEC: showed an antimicrobial activity against VTEC

## CC[C@H]1OC(=O)[C@H](C)[C@@H](O[C@H]2C[C@@](C)(OC)[C@@H](O)[C@H](C)O2)[C@H](C)[C@@H](O[C@@H]2O[C@H](C)C[C@H](N(C)C)[C@H]2O)[C@](C)(OC)C[C@@H](C)C(=O)[C@H](C)[C@@H](O)[C@]1(C)O [CAM, clathromycin]
[5]; [10]
  Amount of VT2 in cecum, individual mouse: 2 titer and 4 titer and < 2 titer and 8 titer
[7]; [10]
  Amount of VT1 in cecum, individual mouse: 2 titer and 4 titer
[8]; [10]
  Number of cells in cecum, individual mouse: 2.4 × 10^7 cfu/site and 7.9 × 10^7 cfu/site and 1.0 × 10^8 cfu/site and 1.3 × 10^8 cfu/site and 7.0 × 10^6 cfu/site and 4.1 × 10^8 cfu/site
  Number of cells in cecum, mean: 6.5 × 10^7 cfu/site

## C[C@@H]1O[C@@H]1P(=O)(O)O [FOM, fosfomycin]
[5]; [10]
  Amount of VT2 in cecum, individual mouse: < 2 titer and 32 titer and 4 titer and 16 titer
[7]; [10]
  Amount of VT1 in cecum, individual mouse: < 2 titer
[8]; [10]
  Number of cells in cecum, individual mouse: 7.1 × 10^5 cfu/site and 3.0 × 10^4 cfu/site and 1.2 × 10^8 cfu/site and 4.6 × 10^7 cfu/site and 9.8 × 10^6 cfu/site and 4.9 × 10^7 cfu/site
  Number of cells in cecum, mean: 6.2 × 10^6 cfu/site

## CCn1cc(C(=O)O)c(=O)c2cc(F)c(N3CCNCC3)cc21 [NFLX, norfloxacin]
[5]; [11]
  Amount of VT2 in cecum, individual mouse: 16 titer
[7]; [11]
  Amount of VT1 in cecum, individual mouse: 2 titer
[9]
  death, individual mouse: died
  tested mice that died due to increased verotoxins: Five of 6
[8]; [11]
  Number of cells in cecum, individual mouse: 6.9 × 10^5 cfu/site
  Number of cells in cecum, mean: 6.9 × 10^5 cfu/site
